Laboratory results published in patent US20110124588A1, “SYNERGISTIC ACTIVE INGREDIENT COMBINATIONS” (Bayer Cropscience AG, priority 2008, published 2011).
Like-named read-outs stand apart in the source and are kept apart here.

Legend:
[1] = system: Phaedon cochleariae; experiment: Phaedon cochleariae larvae test (sprayed cabbage leaves); format: in vivo, mustard beetle (Phaedon cochleariae) larvae; details: for pest or weed control at 4 g/ha / pest or weed control at 20 g/ha / pest or weed control at 0.8 g/ha: Phaedon cochleariae
Protocol: (§1) If the actual kill rate exceeds the calculated value, the kill of the combination is superadditive, i.e. a synergistic effect is present. In this case, the actually observed kill rate must exceed the value calculated using the above formula for the expected kill rate (E).
Solvents: 78 parts by weight of acetone • • 1.5 parts by weight of dimethylformamide Emulsifier: 0.5 part by weight of alkylaryl polyglycol ether
After the desired period of time, the kill in % is determined 100% means that all beetle larvae have been killed; 0% means that none of the beetle larvae have been killed. The kill rates determined are entered into Colby's formula.

[2] = system: Spodoptera frugiperda; experiment: Spodoptera frugiperda larvae test (sprayed cabbage leaves); format: in vivo, army worm (Spodoptera frugiperda) larvae
Source text: (§2) The expected activity of a given combination of two active compounds can be calculated as follows, according to S. R. Colby, Weeds 15 (1967), 20-22:
(§3) X is the kill rate, expressed as a percentage of the untreated control, when employing active compound A at an application rate of m g/ha or in a concentration of m ppm, Y is the kill rate, expressed as a percentage of the untreated control, when employing active compound B at an application rate of n g/ha or in a concentration of n ppm and E is the kill rate, expressed as a percentage of the untreated control, when employing active compounds A and B at application rates of m and n g/ha or in a concentration of m and n ppm, then
as §1
(§4) solvents: 78 parts by weight of acetone • • 1.5 parts by weight of dimethylformamide emulsifier: 0.5 part by weight of alkylaryl polyglycol ether
(§5) To produce a suitable preparation of active compound, 1 part by weight of active compound is mixed with the stated amounts of solvents and emulsifier, and the concentrate is diluted with emulsifier-containing water to the desired concentration.
Cabbage leaves (Brassica oleracea) are treated by spraying with the active compound preparation of the desired concentration and are populated with larvae of the army worm (Spodoptera frugiperda) while the leaves are still moist.
After the desired period of time, the kill in % is determined 100% means that all caterpillars have been killed; 0% means that none of the caterpillars have been killed. The kill rates determined are entered into Colby's formula.

[3] = system: Tetranychus urticae; experiment: Tetranychus urticae test (OP-resistant/spray treatment); format: in vivo, greenhouse red spider mite (Tetranychus urticae)
Source text: as §2, §3, §1, §4, §5
Discs of bean leaves (Phaseolus vulgaris) which are infested by all stages of the greenhouse red spider mite (Tetranychus urticae) are sprayed with an active compound preparation of the desired concentration.
After the desired period of time, the activity in % is determined 100% means that all spider mites have been killed; 0% means that none of the spider mites have been killed.

[4] = system: Myzus persicae; experiment: Myzus persicae test (spray treatment of infested cabbage leaves); format: in vivo, green peach aphid (Myzus persicae); details: for pest or weed control at 0.16 g/ha / pest or weed control at 0.8 g/ha: Myzus persicae
Protocol: as §1, §4
After the desired period of time, the kill in % is determined 100% means that all aphids have been killed; 0% means that none of the aphids have been killed. The kill rates determined are entered into Colby's formula.

[5] = 48 h, single active compound, 2 d, read-out: Kill in % after 2 d
[6] = 144 h, single active compound, 0.8 g/ha, 6 d, read-out: Kill in % after 6 d
[7] = 144 h, single active compound, 6 d, read-out: Kill in % after 6 d
[8] = Tetranychus urticae, 48 h, single active compound, 4 g/ha, after 2 d, read-out: Kill in % after 2 d
[9] = Tetranychus urticae, 144 h, read-out: Kill in % after 6 d
[10] = 144 h, read-out: Kill in % after 6 d
[11] = single active compound, 0.8 g/ha, 6 d
[12] = single active compound, 4 g/ha, after 6 d
[13] = Tetranychus urticae, 48 h, read-out: Kill in % after 2 d
[14] = single active compound, 100 g/ha, 6 d

CC(c1ccc(Cl)nc1)S(C)(=O)=NC#N (stereo not drawn) [compound (I-5)]
pest or weed control at 4 g/ha [1, 5]: 0% | pest or weed control at 20 g/ha [1, 5]: 0% | pest or weed control at 0.8 g/ha [1, 6]: 0% | pest or weed control at 4 g/ha [1, 7]: 0% | pest or weed control at 20 g/ha [1, 7]: 0% | pest or weed control at 0.16 g/ha ([2]; Spodoptera frugiperda, 48 h, single active compound, 0.16 g/ha, 2 d, read-out: Kill in % after 2 d): 0% | pest or weed control at 0.8 g/ha ([2]; Spodoptera frugiperda, 48 h, single active compound, 0.8 g/ha, 2 d, read-out: Kill in % after 2 d): 0% | pest or weed control at 20 g/ha ([2]; Spodoptera frugiperda, 48 h, single active compound, 2 d, read-out: Kill in % after 2 d): 0% | pest or weed control at 100 g/ha ([2]; Spodoptera frugiperda, 48 h, single active compound, 100 g/ha, 2 d, read-out: Kill in % after 2 d): 0% | pest or weed control at 0.8 g/ha ([2]; Spodoptera frugiperda, 144 h, single active compound, 0.8 g/ha, 6 d, read-out: Kill in % after 6 d): 0% | pest or weed control at 4 g/ha ([2]; Spodoptera frugiperda, 144 h, single active compound, 4 g/ha, 6 d, read-out: Kill in % after 6 d): 0% | pest or weed control at 20 g/ha ([2]; Spodoptera frugiperda, 144 h, single active compound, 6 d, read-out: Kill in % after 6 d): 0% | pest or weed control at 100 g/ha ([2]; Spodoptera frugiperda, 144 h, single active compound, 100 g/ha, 6 d, read-out: Kill in % after 6 d): 0% | pest or weed control at 0.8 g/ha ([3]; Tetranychus urticae, 48 h, single active compound, 0.8 g/ha, after 2 d, read-out: Kill in % after 2 d): 0% | pest or weed control at 4 g/ha [3, 8]: 0% | pest or weed control at 4 g/ha ([3]; Tetranychus urticae, 144 h, single active compound, 4 g/ha, after 6 d, read-out: Kill in % after 6 d): 0% | pest or weed control at 20 g/ha ([3]; Tetranychus urticae, 144 h, single active compound, 20 g/ha, after 6 d, read-out: Kill in % after 6 d): 0% | pest or weed control at 100 g/ha ([3]; Tetranychus urticae, 144 h, single active compound, 100 g/ha, after 6 d, read-out: Kill in % after 6 d): 0% | pest or weed control at 0.16 g/ha ([4]; 24 h, single active compound, 0.16 g/ha, 1 d, read-out: Kill in % after 1 d): 0% | pest or weed control at 0.8 g/ha ([4]; 24 h, single active compound, 0.8 g/ha, 1 d, read-out: Kill in % after 1 d): 0% | pest or weed control at 0.16 g/ha ([4]; 144 h, single active compound, 0.16 g/ha, 6 d, read-out: Kill in % after 6 d): 0% | pest or weed control at 0.8 g/ha [4, 6]: 20%

Cc1nn(C)c(Oc2ccccc2)c1C=NOCc1ccc(C(=O)OC(C)(C)C)cc1 [fenpyroximate]
pest or weed control at 20 g/ha [1, 5]: 0% | pest or weed control at 100 g/ha ([2]; Spodoptera frugiperda, 144 h, read-out: Kill in % after 6 d): 50% | pest or weed control at 4 g/ha [3, 9]: 60% | pest or weed control at 0.8 g/ha [4, 10]: 0%

spinosad
Kill in % after 6 d [2, 11]: 50% | Kill in % after 6 d [3, 12]: 20%

CC(C)c1cc(Oc2ccccc2)cc(C(C)C)c1NC(=S)NC(C)(C)C [diafenthiuron]
pest or weed control at 20 g/ha [1, 7]: 0% | pest or weed control at 4 g/ha [3, 8]: 0%

CN/C(=N\[N+](=O)[O-])NCC1CCOC1 (stereo not drawn) [dinotefuran]
pest or weed control at 0.8 g/ha [1, 10]: 0% | pest or weed control at 20 g/ha [3, 13]: 0% | pest or weed control at 0.8 g/ha ([4]; 24 h, read-out: Kill in % after 1 d): 0%

CCOCn1c(-c2ccc(Cl)cc2)c(C#N)c(Br)c1C(F)(F)F [chlorfenapyr]
pest or weed control at 0.8 g/ha [1, 6]: 0% | pest or weed control at 4 g/ha [1, 7]: 83% | pest or weed control at 4 g/ha ([2]; Spodoptera frugiperda, 48 h, read-out: Kill in % after 2 d): 67% | pest or weed control at 4 g/ha [3, 13]: 50%

abamectin
Kill in % after 6 d ([1]; single active compound, 0.16 g/ha, 6 d): 0% | Kill in % after 2 d ([3]; single active compound, 0.032 g/ha, after 2 d): 0% | Kill in % after 6 d ([4]; single active compound, 0.032 g/ha, 6 d): 0%

CSC(=O)O/C(=C(/C#N)c1ccc(Cl)cc1)c1ccccc1C(F)(F)F [IKA 2002]
Kill in % after 6 d [1, 14]: 0% | Kill in % after 6 d [2, 14]: 0% | Kill in % after 6 d [3, 12]: 70%

spinetoram
Kill in % after 6 d [1, 11]: 50% | Kill in % after 2 d ([2]; single active compound, 0.16 g/ha, 2 d): 50% | Kill in % after 2 d ([3]; single active compound, 4 g/ha, after 2 d): 20% | Kill in % after 6 d [4, 11]: 0%

CCc1nn(C)c(C(=O)NCc2ccc(C(C)(C)C)cc2)c1Cl [tebufenpyrad]
pest or weed control at 20 g/ha [1, 7]: 0% | pest or weed control at 4 g/ha [3, 9]: 40% | pest or weed control at 0.16 g/ha [4, 10]: 0% | pest or weed control at 0.8 g/ha [4, 10]: 0%
